According to patent US20260158102A1, “CYCLIC PEPTIDE DERIVATIVE COMPOSITION FOR TREATING OR PREVENTING NEUROPATHIC PAIN AND/OR INFLAMMATORY PAIN” (DKS Co. Ltd., priority 2022, published 2026):

Experiment: Body weight measurement in rat STZ-induced diabetes model
Assay type: in vivo
Conditions: mean ± SE, in g (unit assumed)
Procedure: Compound 9 (50 mg/mL) was diluted with water for injection to obtain a 1 mg/mL administration specimen. For the specimens to be administered at 0.1 mg/mL and 0.01 mg/mL, the specimen to be administered at 1 mg/mL was diluted stepwise with water for injection. Each administration specimen was divided into PP disposable tubes every day and stored in a storehouse (freezer: MDF-MU339H-PJ, PHC Corporation) under the condition of freezing (−30° C. to −20° C., measured value: −26.4 to −24.5° C.). Preparation was performed on the day before the start of administration.
Water for injection was added to and dissolved in Pregabalin taken out from the capsule to obtain 2 mg/mL. It was prepared before use.
• Animal species: rat (SPF) • Strain: Crl: CD (SD) • Date of animal acquisition, gender, age in weeks, number of animals acquired, and weight range after 1 day of acquisition • First and second courses: Apr. 6, 2022, male, 7 weeks old, 35 animals, 217 to 237 g • Third and fourth courses: Apr. 13, 2022, male, 7 weeks old, 35 animals, 216 to 235 g • Source: […].
• Dose volume: calculated at 2 mL/kg based on the body weight on the day of administration. • Number of times of administration: once • Day of administration: 7 days before the day of starting administration of the test substance.
• Dose volume: calculated at 1 mL/kg based on the body weight on the day of administration. • Number of times of administration: 9 times • Interval of administration: once every 3 days (evaluation was performed on the day after administration) • Day of starting administration: day 8 of STZ administration (day of STZ administration is counted as day 1).
• Dose volume: calculated at 10 mL/kg based on the body weight on the day of administration. • Number of times of administration: Administration was performed once on the day of evaluation of neuropathic pain, twice in total, and on the other days of administration, a vehicle for a control substance (water for injection) was orally administered.
• Measurement was performed every day after the day of STZ administration.
The mean and standard error of each group were calculated for the 50% withdrawal threshold, body weight, and blood glucose level.
The body weight was an integer.
No significant difference test of body weight and blood glucose levels was performed.

Work on `CC[C@@]1(C)Oc2cc(ccc2O)C[C@H](NC)C(=O)N[C@@H](C(C)C)C(=O)N[C@@H]1C(=O)N[C@@H](CC(=O)O)C(=O)O` [Compound 9] yielded a Body weight (0.1 mg/kg iv, day 10 of STZ administration) of 295 ± 6, a Body weight (0.1 mg/kg iv, day 11 of STZ administration) of 298 ± 6 and a Body weight (0.1 mg/kg iv, day 12 of STZ administration) of 300 ± 4. The Body weight (0.1 mg/kg iv, day 13 of STZ administration) was 303 ± 6, the Body weight (0.1 mg/kg iv, day 14 of STZ administration) was 305 ± 5 and the Body weight (0.1 mg/kg iv, day 15 of STZ administration) was 300 ± 6. The Body weight (0.1 mg/kg iv, day 16 of STZ administration) was 302 ± 7, the Body weight (0.1 mg/kg iv, day 17 of STZ administration) was 307 ± 7 and the Body weight (0.1 mg/kg iv, day 18 of STZ administration) was 305 ± 7. The Body weight (0.1 mg/kg iv, day 19 of STZ administration) was 310 ± 8, the Body weight (0.1 mg/kg iv, day 20 of STZ administration) was 312 ± 8 and the Body weight (0.1 mg/kg iv, day 21 of STZ administration) was 307 ± 7. For the same compound, the Body weight (0.1 mg/kg iv, day 22 of STZ administration) was 311 ± 7, the Body weight (0.1 mg/kg iv, day 23 of STZ administration) was 314 ± 8 and the Body weight (0.1 mg/kg iv, day 24 of STZ administration) was 312 ± 7. The Body weight (0.1 mg/kg iv, day 25 of STZ administration) was 312 ± 7, the Body weight (0.1 mg/kg iv, day 26 of STZ administration) was 312 ± 7 and the Body weight (0.1 mg/kg iv, day 27 of STZ administration) was 310 ± 8. The Body weight (0.1 mg/kg iv, day 28 of STZ administration) was 315 ± 8, the Body weight (0.1 mg/kg iv, day 29 of STZ administration) was 311 ± 7 and the Body weight (0.1 mg/kg iv, day 30 of STZ administration) was 313 ± 8. For the same compound, the Body weight (0.1 mg/kg iv, day 31 of STZ administration) was 310 ± 8, the Body weight (0.1 mg/kg iv, day 32 of STZ administration) was 312 ± 8 and the Body weight (0.1 mg/kg iv, day 33 of STZ administration) was 308 ± 8. It also gave a Body weight (1 mg/kg iv, day 1 of STZ administration) of 293 ± 5, a Body weight (1 mg/kg iv, day 2 of STZ administration) of 282 ± 6 and a Body weight (1 mg/kg iv, day 3 of STZ administration) of 277 ± 4. It also gave a Body weight (1 mg/kg iv, day 4 of STZ administration) of 279 ± 4, a Body weight (1 mg/kg iv, day 5 of STZ administration) of 284 ± 5 and a Body weight (1 mg/kg iv, day 6 of STZ administration) of 286 ± 5. The Body weight (1 mg/kg iv, day 7 of STZ administration) was 291 ± 5, the Body weight (1 mg/kg iv, day 8 of STZ administration) was 290 ± 5 and the Body weight (1 mg/kg iv, day 9 of STZ administration) was 291 ± 5. It also gave a Body weight (1 mg/kg iv, day 10 of STZ administration) of 294 ± 6, a Body weight (1 mg/kg iv, day 11 of STZ administration) of 300 ± 7 and a Body weight (1 mg/kg iv, day 12 of STZ administration) of 299 ± 6. It also gave a Body weight (1 mg/kg iv, day 13 of STZ administration) of 303 ± 6, a Body weight (1 mg/kg iv, day 14 of STZ administration) of 302 ± 6 and a Body weight (1 mg/kg iv, day 15 of STZ administration) of 303 ± 7. It also gave a Body weight (1 mg/kg iv, day 16 of STZ administration) of 303 ± 8, a Body weight (1 mg/kg iv, day 17 of STZ administration) of 305 ± 8 and a Body weight (1 mg/kg iv, day 18 of STZ administration) of 306 ± 7. It also gave a Body weight (1 mg/kg iv, day 19 of STZ administration) of 307 ± 7, a Body weight (1 mg/kg iv, day 20 of STZ administration) of 305 ± 9 and a Body weight (1 mg/kg iv, day 21 of STZ administration) of 304 ± 8. For the same compound, the Body weight (1 mg/kg iv, day 22 of STZ administration) was 309 ± 8, the Body weight (1 mg/kg iv, day 23 of STZ administration) was 309 ± 9 and the Body weight (1 mg/kg iv, day 24 of STZ administration) was 311 ± 9. For the same compound, the Body weight (1 mg/kg iv, day 25 of STZ administration) was 309 ± 9, the Body weight (1 mg/kg iv, day 26 of STZ administration) was 311 ± 9 and the Body weight (1 mg/kg iv, day 27 of STZ administration) was 308 ± 9. The Body weight (1 mg/kg iv, day 28 of STZ administration) was 309 ± 9, the Body weight (1 mg/kg iv, day 29 of STZ administration) was 310 ± 9 and the Body weight (1 mg/kg iv, day 30 of STZ administration) was 308 ± 10. For the same compound, the Body weight (1 mg/kg iv, day 31 of STZ administration) was 306 ± 9, the Body weight (1 mg/kg iv, day 32 of STZ administration) was 309 ± 10 and the Body weight (1 mg/kg iv, day 33 of STZ administration) was 308 ± 10.
